According to US20060199172A1, “Laminated cell culture containing hepatocytes and method for detecting endocrine-like substance” (FUJI PHOTO FILM CO., LTD., priority 2005, published 2006):

Legend:
[1] = test system: rat primary hepatocytes; experiment: AST release into the medium from cultured hepatocytes after adding the substance; format: cell-based; details: 0.1 μg/ml, measured over time
Experimental: Rat primary hepatocytes (collected by the method described in “Techniques of Tissue Culture, Second edition”, Ed. by Japan Tissue Culture Association, Asakura Publishing, p. 135) were inoculated on a 12-well microplate (FALCON, No. 3505) in an amount of 50000 cells/well and cultured for 24 hours under the conditions of 37° C. and 5% CO2. Separately, the carrier for cell culture prepared in Example 1 was adhered to bottom of a 20-mm petri dish (FALCON, No. 2163) with a small amount of sterilized water. 20,000 cells of rat vascular endothelial cells A-10 (Dainippon Pharmaceutical Co., Ltd.) were inoculated on the carrier for cell culture and cultured for 72 hours under the conditions of 37° C. and 5% CO2. As the medium, 10% FBS Eagle's MEM medium (GIBCO) was used for both cultures. The rat vascular endothelial cell culture obtained was carefully placed on the aforementioned rat primary hepatocytes on the 12-well microplate so that the cell growing side contacted with the rat primary hepatocytes, and cultured for 24 hours under the conditions of 37° C. and 5% CO2. […]
The laminated cell culture prepared in Example 2 and the hepatocytes cultured as monolayer culture was added with 0.1 μg/ml of chloropramazine, and the amount of AST released into the medium was measured over time.

[2] = test system: rat uterus; details: in vivo; cited from earlier work
[3] = test system: MCF-7 cells; experiment: Detection of endocrine-like substance by number of MCF-7 cells in the laminated cell culture system; format: cell-based; details: laminated cell culture system (MCF-7 + rat primary hepatocytes + rat vascular endothelial cells), 0.1 μg/ml, 14 days; compared with MCF-7 only and monolayer hepatocytes + MCF-7
Experimental: 40,000 of estrogen-like substance detection cells (MCF-7) were inoculated on a 12-well microplate and cultured for 7 days under the conditions of 37° C. and 5% CO2 to prepare an MCF-7 cell layer.
The carrier for cell culture prepared in Example 1 was adhered to bottom of a 20-mm petri dish (FALCON, No. 2163) with a small amount of sterilized water, and 40,000 cells of rat primary hepatocytes (collected by the method described in “Techniques of Tissue Culture, Second edition”, Ed. by Japan Tissue Culture Association, Asakura Publishing, p. 135) were inoculated on the carrier for cell culture and cultured for 24 hours under the conditions of 37° C. and 5% CO2. In the same manner, 20,000 cells of rat vascular endothelial cells A-10 (Dainippon Pharmaceutical Co., Ltd.) were inoculated on the carrier for cell culture prepared in Example 1 and cultured for 72 hours under the conditions of 37° C. and 5% CO2.
The rat primary hepatocyte cell culture obtained was carefully placed on the MCF-7 cell layer on the 12-well microplate so that the side of the growth of the rat primary hepatocyte was on the side of the MCF-7 cells, and cultured for 24 hours under the conditions of 37° C. and 5% CO2. […]

Structure (SMILES)	amount of AST released into the medium ([1]; laminated cell culture (rat primary hepatocytes + rat vascular endothelial cells A-10))	amount of AST released into the medium ([1]; primary hepatocytes cultured as monolayer culture)	rat uterus proliferation test result [2]	number of MCF-7 cells [3]
CN(C)CCCN1c2ccccc2Sc2ccc(Cl)cc21 [chloropramazine]	increase in the amount of AST was observed	AST was not detected		
CC(C)c1cc(C(C)C)c2ccccc2c1 [2,4-diisopropylnaphthalene]			positive	maximum value
